Test results from US20100063077A1, “PYRIMIDINE DERIVATIVES FOR THE TREATMENT OF AMYLOID-RELATED DISEASES” (SENEXIS LIMITED, priority 2006, published 2010).
Read-outs that look alike come from different tables or passages of the source.

What was measured:
SH SY5Y cells = assay: Cell viability assay for amyloid toxicity using MTT reduction; type: cell-based; details: 10 μM Aβ(1-42), 24 h incubation, read-out: IC50, protecting SH SY5Y cells from a toxic insult of Aβ(1-42) (MTT reduction as measure of cell viability)
Description: Aβ(1-42) was prepared for amyloid aggregation and toxicity assays by dissolving Aβ(1-42) HCl salt in hexafluoroisopropanol (HFIP), with brief sonication and vortexing. This solution of the Aβ(1-42) peptide in HIT was stored at 4° C.@2 mM. When required, an aliquot of this stock solution was freeze-dried and dissolved in DMSO to 200 times the required final assay concentration (e.g. 2 mM for a final assay concentration of 10 μM).
A 20 mM stock solution of each test compound was prepared in DMSO, and aliquots of these solutions were used to prepare further stock solutions of each test compound in DMSO, ranging in concentration from 3 μM up to 10 mM. These stock solutions were prepared for use as and when required and stored at −20° C. (maximum of 3 freeze-thaw cycles). The 20 mM parent stock solutions were stored frozen at −20° C.
The activity of compounds in protecting SH SY5Y cells from a toxic insult of 10 μM Aβ(1-42) was assessed by using inhibition of MTT reduction as a measure of cell viability. An aliquot (3 μl) of test compound [various concentrations] in DMSO is added to 294 μl of Opti-Mem (containing 2% FBS, 1% Pen/Strep, 1% L-Gln) {daughter plate}. The well is mixed thoroughly. Then an aliquot (3 μl) of Aβ(1-42) [2 mM] is added to the daughter plate wells and again mixed thoroughly. 50 μl is then aspirated and dispensed into wells containing 50 μl media+SH SY5Ycells (cells are also plated in Opti-Mein, at ˜30,000 cells/well/50 μl). Final concentrations of compound on cells range from [50 μM] to [˜15 nM] with a final concentration of Aβ(1-42) of [10 μM].
Cell plates are incubated for 24 h and then the MTT assay (Shearman, 1999). is performed. […] The plate was shaken and the absorbance was recorded at both 570 nm and 650 nm. ΔA values were calculated by subtracting absorbance at 650 nm from absorbance at 570 nm, to reduce non-specific background absorbance. ΔA values from equivalent experiments were averaged and % cell viability was determined as follows: […]

Aβ(1-42) = biological target: T1, Aβ(1-42) (Homo sapiens, UniProt P05067); assay: Thioflavin T fluorimetric assay of Aβ(1-42) aggregation; type: biochemical; details: 10 μM Aβ(1-42); read-out: IC50, inhibiting Aβ(1-42) aggregation (thioflavin-T fluorimetric assay)
T1 construct: dissolving Aβ(1-42) HCl salt in hexafluoroisopropanol (HFIP)
Description: Aβ(1-42) was prepared for amyloid aggregation and toxicity assays by dissolving Aβ(1-42) HCl salt in hexafluoroisopropanol (HFIP), with brief sonication and vortexing. This solution of the Aβ(1-42) peptide in HIT was stored at 4° C.@2 mM. When required, an aliquot of this stock solution was freeze-dried and dissolved in DMSO to 200 times the required final assay concentration (e.g. 2 mM for a final assay concentration of 10 μM). A 20 mM stock solution of each test compound was prepared in DMSO, and aliquots of these solutions were used to prepare further stock solutions of each test compound in DMSO, ranging in concentration from 3 μM up to 10 mM. These stock solutions were prepared for use as and when required and stored at −20° C. (maximum of 3 freeze-thaw cycles). The 20 mM parent stock solutions were stored frozen at −20° C. The daughter plate is sealed with silver seal and incubated at 37° C. for 24 and 48 hours for the Thioflavin T assay (LeVine and Scholten 1999). The activity of compounds in inhibiting 10 μM Aβ(1-42) aggregation was assessed by using a thioflavin-T fluorimetric assay. At each timepoint, a 50 or 100 μl aliquot is taken from each well of the daughter plate and dispensed into a black 96 well plate. Equal volume (50 or 100 μl) Thioflavin T [40 μM] (in Glycine buffer [50 mM] —NaOH pH 8.5) is added to each well. The plate was shaken and fluorescence was recorded using the top reader setting (10×1 msec), using excitation and emission filters of 440 (±15) and 485 (±10) nm, respectively. Fluorescence readings from equivalent experiments were averaged and % amyloid formation was determined as follows: [formula] Activity of compounds in inhibiting 10 μM Aβ(1-42) aggregation using thioflavin-T fluorimetric assay

T1 sequence (P05067 672-713): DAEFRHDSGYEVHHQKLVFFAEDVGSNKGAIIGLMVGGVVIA

Row | Structure (SMILES) | IC50 (Aβ(1-42)) | IC50 (SH SY5Y cells; Homo sapiens, SH-SY5Y) | IC50 (SH SY5Y cells)
1 | CN(c1ccccc1)c1cnc(Nc2cccc(O)c2)nc1 [Example 11, 2-(3-Hydroxyphenylamino)-5-[phenyl(methyl)amino]pyrimidine] | 22 µM | 30 µM | 
2 | COc1cccc(Nc2cnc(Nc3ccc(Cl)c(Cl)c3)nc2)c1 [Example 10, 2-(3,4-Dichlorophenylamino)-5-(3-methoxyphenylamino)-pyrimidine] | 8.5 µM |  | 
3 | Oc1cccc(Nc2ccc(Nc3cccc(O)c3)nn2)c1 [RS-0406, reference compound] |  |  | 40 µM
4 | Oc1cccc(Nc2ncc(Nc3cccc(C(F)(F)F)c3)cn2)c1 [Example 4, 2-(3-Hydroxyphenylamino)-5-[3-(trifluoromethyl)phenylamino]-pyrimidine] | 13 µM |  | 

Second part, led by results:

Row | IC50 (Aβ(1-42)) | Structure (SMILES) | IC50 (SH SY5Y cells; Homo sapiens, SH-SY5Y) | IC50 (SH SY5Y cells)
5 | 32 µM | Oc1cccc(Nc2cnc(Nc3cccc(O)c3)nc2)c1 [Example 2, 2,5-Bis-(3-hydroxyphenylamino)pyrimidine] | 14 µM | 
6 | 5 µM | Oc1cccc(Nc2cnc(Nc3cccc(C(F)(F)F)c3)nc2)c1 [Example 8, 2-(3-Trifluoromethylphenylamino)-5-(3-hydroxyphenylamino)-pyrimidine] |  | 
